Calls of active or inactive are those of the source. No cut-off for these calls is given here.

The values that follow come from ChEMBL document CHEMBL5113479, “Pyrido[2,3-d]pyrimidine-2,4(1H,3H)-dione derivatives as RAF-MEK-ERK pathway signaling pathway blockers: Synthesis, cytotoxic activity, mechanistic investigation and structure-activity relationships” (Eur J Med Chem, 2022).

Series [1] has as its system SK-HEP1. Description: Induction of cell cycle arrest in human SK-HEP1 cells assessed as accumulation of cells at G2/M phase at 1.25 uM measured after 24 hrs by propidium iodide staining based flow cytometric analysis (reference value: 18.32 %). The format is functional.
In series [2] the test system is SK-HEP1. Description: Induction of cell cycle arrest in human SK-HEP1 cells assessed as accumulation of cells at S phase at 2.5 uM measured after 24 hrs by propidium iodide staining based flow cytometric analysis (reference value: 33.08 %). Type of series: functional.
For series [3], the system named is SK-HEP1. Nature of the series: Induction of apoptosis in human SK-HEP1 cells assessed as downregulation of B-Raf protein expression by Western blot analysis. The format is functional, cell-based. The settings on record: dose 1-5 µM, DDE = dose-dependent effect.
The test system of series [4] is SK-HEP1. Description: Inhibition of MEK1/2 phosphorylation in human SK-HEP1 cells by Western blot analysis. The settings on record: dose 1-5 µM, DDE = dose-dependent effect. Type of series: cell-based.
Series [5] relates to SK-HEP1. Description: Induction of apoptosis in human SK-HEP1 cells assessed as downregulation of ERK2 expression at 2.5 uM measured after 48 hrs by fluorescent quantitative PCR analysis relative to control. Type of series: functional.
The subject of series [6] is SK-HEP1. Nature of the series: Induction of cell cycle arrest in human SK-HEP1 cells assessed as accumulation of cells at G0/G1 phase at 2.5 uM measured after 24 hrs by propidium iodide staining based flow cytometric analysis (reference value: 48.40 %). The format is functional.
The test system of series [7] is SK-HEP1. Nature of the series: Induction of cell cycle arrest in human SK-HEP1 cells assessed as accumulation of cells at G0/G1 phase at 1.25 uM measured after 24 hrs by propidium iodide staining based flow cytometric analysis (reference value: 48.40 %). Type of series: functional.
In series [8] the test system is SK-HEP1. Nature of the series: Inhibition of colony formation in human SK-HEP1 cells assessed as reduction in number of colonies at 2 uM measured after 7 days by crystal violet staining based assay. Type of series: functional. The settings on record: SK-HEP1, 168 h, time 7 day.
Series [9] concerns SK-HEP1. Nature of the series: Inhibition of colony formation in human SK-HEP1 cells assessed as reduction in number of colonies at 0.2 uM measured after 7 days by crystal violet staining based assay. The format is functional, cell-based. To be noted: time 7.0 day.
Series [10] relates to SK-HEP1. Description: Induction of apoptosis in human SK-HEP1 cells assessed as late apoptotic cells at 1.25 to 5 uM measured after 48 hrs by AnnexinV-FITC/propidium iodide staining based flow cytometry analysis (reference value: 0.36 %). The format is functional. The settings on record: dose 1.25-5 µM.
Series [11] has as its system SK-HEP1. Description: Inhibition of cell migration in human SK-HEP1 cells at 2.5 uM measured after 12 to 24 hrs by inverted microscopy based wound healing assay. The format is functional. The settings on record: time 12-24 hrs.
Series [12] has as its system SK-HEP1. Nature of the series: Induction of apoptosis in human SK-HEP1 cells assessed as downregulation of ERK1 expression at 2.5 uM measured after 48 hrs by fluorescent quantitative PCR analysis relative to control. Type of series: functional.
Series [13] relates to SK-HEP1. Description: Induction of apoptosis in human SK-HEP1 cells assessed as upregulation of activated caspase-9 protein expression at 1 to 2 uM by Western blot analysis. Type of series: functional, cell-based. To be noted: dose 1-2 µM.
For series [14], the system named is SK-HEP1. Description: Antiproliferative activity against human SK-HEP1 cells assessed as inhibition of cell growth measured after 72 hrs by CCK8 assay. The settings on record: SK-HEP1, 72 h. The format is functional, cell-based.
For series [15], the system named is SK-MEL-2. Nature of the series: Antiproliferative activity against human SK-MEL-2 cells assessed as inhibition of cell growth measured after 72 hrs by CCK8 assay. Type of series: functional, cell-based. The settings on record: SK-MEL-2, 72 h.
Series [16] relates to SK-HEP1. Description: Induction of cell cycle arrest in human SK-HEP1 cells assessed as accumulation of cells at G2/M phase at 2.5 uM measured after 24 hrs by propidium iodide staining based flow cytometric analysis (reference value: 18.32 %). The format is functional.
Series [17] deals with A-375. Description: Induction of apoptosis in human A-375 cells assessed as late apoptotic cells at 1.25 to 5 uM measured after 48 hrs by AnnexinV-FITC/propidium iodide staining based flow cytometry analysis (reference value: 1.61 %). The format is functional. The settings on record: dose 1.25-5 µM.
Series [18] deals with SK-HEP1. Nature of the series: Induction of ROS production in human SK-HEP1 cells at 1 to 2 uM measured after 24 hrs by DCFH-DA staining based confocal microscopic and flow cytometry analysis. The format is functional, cell-based. To be noted: dose 1-2 µM.
The subject of series [19] is SK-HEP1. Nature of the series: Antiproliferative activity against human SK-HEP1 cells cultured as 3D spheroids assessed as appearance of collapsed spheroids at 10 uM measured after 96 hrs by fluorescence microscopic analysis. Type of series: functional, cell-based.
In series [20] the test system is SK-HEP1. Nature of the series: Induction of cell cycle arrest in human SK-HEP1 cells assessed as accumulation of cells at S phase at 5 uM measured after 24 hrs by propidium iodide staining based flow cytometric analysis (reference value: 33.08 %). The format is functional.
Series [21] has as its target T1, Mitogen-activated protein kinase; ERK1/ERK2 (Homo sapiens) (UniProt P27361+P28482). Nature of the series: Inhibition of intracellular ERK1/2 phosphorylation in human SK-HEP1 cells at 5 uM by Western blot analysis. Type of series: cell-based.
In series [22] the test system is SK-HEP1. Description: Induction of apoptosis in human SK-HEP1 cells assessed as upregulation of activated caspase-3 protein expression at 1 to 2 uM by Western blot analysis. The format is functional, cell-based. To be noted: dose 1-2 µM.
Another series relates to MCF7. Description: Antiproliferative activity against human MCF7 cells assessed as inhibition of cell growth measured after 72 hrs by CCK8 assay. Type of series: functional, cell-based. The settings on record: MCF7, 72 h.
The test system of series [23] is A-375. Description: Antiproliferative activity against human A-375 cells assessed as inhibition of cell growth measured after 72 hrs by CCK8 assay. The settings on record: A-375, 72 h. Type of series: functional, cell-based.
Series [24] has as its system SK-HEP1. Nature of the series: Induction of cell cycle arrest in human SK-HEP1 cells assessed as accumulation of cells at S phase at 1.25 uM measured after 24 hrs by propidium iodide staining based flow cytometric analysis (reference value: 33.08 %). The format is functional.
Series [25] deals with T1, Mitogen-activated protein kinase; ERK1/ERK2 (Homo sapiens). Description: Inhibition of intracellular ERK1/2 phosphorylation in human A-375 cells at 5 uM by Western blot analysis. The format is cell-based.
The nature of series [26]: Cytotoxicity against human C-28/I2 cells measured after 72 hrs by CCK8 assay. Type of series: toxicity, cell-based.
Series [27] deals with SK-HEP1. Description: Induction of apoptosis in human SK-HEP1 cells assessed as downregulation of ERK1/2 protein expression by Western blot analysis. Type of series: functional, cell-based. The settings on record: dose 1-5 µM, DDE = dose-dependent effect.
The target in series [28] is T1, Mitogen-activated protein kinase; ERK1/ERK2 (Homo sapiens). Description: Inhibition of ERK1/2 phosphorylation in human SK-HEP1 cells by Western blot analysis. The format is cell-based. The settings on record: dose 1-5 µM, DDE = dose-dependent effect.
Series [29] has as its system SK-HEP1. Nature of the series: Antiproliferative activity against human SK-HEP1 cells cultured as 3D spheroids assessed as appearance of crumbled spheroids at 10 uM measured after 120 hrs by fluorescence microscopic analysis. The format is functional, cell-based.
Series [30] concerns SK-HEP1. Description: Induction of cell cycle arrest in human SK-HEP1 cells assessed as accumulation of cells at G2/M phase at 5 uM measured after 24 hrs by propidium iodide staining based flow cytometric analysis (reference value: 18.32 %). The format is functional.
The subject of series [31] is SK-HEP1. Nature of the series: Antiproliferative activity against human SK-HEP1 cells cultured as 3D spheroids assessed as appearance of flattened spheroids at 10 uM measured after 48 hrs by fluorescence microscopic analysis. The format is functional, cell-based.
In series [32] the test system is SK-HEP1. Nature of the series: Induction of cell cycle arrest in human SK-HEP1 cells assessed as accumulation of cells at G0/G1 phase at 5 uM measured after 24 hrs by propidium iodide staining based flow cytometric analysis (reference value: 48.40 %). Type of series: functional.
The test system of series [33] is SK-MEL-2. Description: Antiproliferative activity against human SK-MEL-2 cells assessed as inhibition of cell growth. The format is functional, cell-based.
The subject of series [34] is A-375. Description: Cytotoxicity against human A-375 cells assessed as inhibition of cell growth. Type of series: functional, cell-based.
The nature of series [35]: Cytotoxicity against human C-28/I2 cells. The format is toxicity, cell-based.

T1 sequence (P27361 whole entry, looked up): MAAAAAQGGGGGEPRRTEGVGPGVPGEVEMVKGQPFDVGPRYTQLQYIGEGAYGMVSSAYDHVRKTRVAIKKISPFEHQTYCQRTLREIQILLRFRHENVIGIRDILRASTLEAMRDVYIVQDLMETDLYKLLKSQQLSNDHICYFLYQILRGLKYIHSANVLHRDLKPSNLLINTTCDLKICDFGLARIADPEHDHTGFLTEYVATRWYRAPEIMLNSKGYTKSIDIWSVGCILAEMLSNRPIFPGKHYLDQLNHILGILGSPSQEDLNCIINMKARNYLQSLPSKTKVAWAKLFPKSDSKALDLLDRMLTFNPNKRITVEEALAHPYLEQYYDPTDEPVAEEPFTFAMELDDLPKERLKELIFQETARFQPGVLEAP
T1 sequence (P28482 whole entry, looked up): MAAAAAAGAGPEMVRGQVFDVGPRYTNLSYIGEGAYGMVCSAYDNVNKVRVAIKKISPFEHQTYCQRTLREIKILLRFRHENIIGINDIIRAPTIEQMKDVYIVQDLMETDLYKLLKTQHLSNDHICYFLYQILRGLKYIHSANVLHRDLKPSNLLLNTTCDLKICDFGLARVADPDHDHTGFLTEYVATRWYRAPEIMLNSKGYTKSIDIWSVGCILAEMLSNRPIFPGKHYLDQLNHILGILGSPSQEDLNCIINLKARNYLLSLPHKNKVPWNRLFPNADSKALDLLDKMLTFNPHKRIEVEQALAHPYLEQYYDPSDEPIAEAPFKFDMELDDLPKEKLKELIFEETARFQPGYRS

`CN1CCN(c2cc(NCC(=O)Nc3cccc(Cl)c3)c3c(=O)n(C)c(=O)n(C)c3n2)CC1`: the Activity in the series on SK-HEP1 [1] is 21.31%; in the series with SK-HEP1 [2] it was 34.93%; in the series with SK-HEP1 [3] it was “Dde”; in the series with SK-HEP1 [5] it was 60%; in the series on SK-HEP1 [6], 45.09%; in the series on SK-HEP1 [7] it was 44.1%. The Activity in the series on SK-HEP1 [10] was 42.4%; in the series on SK-HEP1 [12], 70%; with SK-HEP1 [16] it was 19.98%; with A-375 [17], 32.6%; in the series on SK-HEP1 [20], 31.23%; with SK-HEP1 [24], 34.59%. For the same compound, the Activity result in the series with SK-HEP1 [27] is “Dde”; in the series with SK-HEP1 [30], 23.92%; in the series on SK-HEP1 [32] it was 44.85%. For the same compound, the inhibition entry (with SK-HEP1 [4]; in series [28]) was “Dde” each time. Moreover, the inhibition at 2 µM in the series on SK-HEP1 [8] stood at 100%. In addition, the inhibition result (with SK-HEP1 [9]; in the series with SK-HEP1 [11]; in series [21]; in series [25]) was “Active” throughout. The result in the series on SK-HEP1 [13], in the series with SK-HEP1 [18], in the series with SK-HEP1 [19], with SK-HEP1 [22], in the series with SK-HEP1 [29] and in the series on SK-HEP1 [31] was Active. Moreover, the 50% inhibitory concentration (IC50) with SK-HEP1 [14] was 2.04 µM; in the series with SK-MEL-2 [15], 4.79 µM; in the series with MCF7, 3.15 µM; in the series with A-375 [23], 5.2 µM. Further, the cytotoxic concentration (CC50) at 72 h in series [26] was greater than 50 µM.

`O=c1[nH]c2c(c(O)c1Cc1ccccc1)c(=O)n(-c1ccc(OC(F)(F)F)cc1)c(=O)n2-c1ccc(OC(F)(F)F)cc1`: the IC50 with SK-MEL-2 [33] was determined as 13.7 µM; in the series with MCF7, 9.98 µM; in the series on A-375 [23], 24.5 µM; in the series with A-375 [34], 12.8 µM. For the same compound, the CC50 in [35] came out at 35.9 µM.
